In patent US20040229205A1, “Compositions for the storage of platelets” (priority 2003, published 2004):

Legend:
[1] = tested on: platelets (P-selectin expression); assay: P-selectin expression of stored platelets by flow cytometry, basal and after 10 nM thrombin challenge; type: cell-based; conditions: for Difference (% capable of being activated) / % Positive / P-Selectin Expression: five day stored platelets; for retained P-selectin expression activity: thrombin challenge
Excerpt: Internal protein expression may be measured by conjugation of a molecule with a fluorescent dye, followed by sorting in a fluorescent cell sorter. In general, it is preferable to use two monoclonal antibodies, one that binds a cell surface molecule expressed and a second that binds a cell surface molecule that is expressed only after activation. Each monoclonal antibody is conjugated to a different colored dye, that can be distinguished by spectrofluorometry. In the preferred embodiment, the normally expressed cell surface molecule is GPIIbIIIa; the cell surface molecule expressed after activation is P-selectin. It is well know in the art to make monoclonal antibodies to proteins. U.S. Pat. No. 5,470,738, issued in 1995 to Freilich et al, is one example of a method of making monoclonal antibodies to GPIIIa. Another anti-platelet monoclonal antibody is that to GP IV, as disclosed by U.S. Pat. No. 5,231,025, issued in 1993 to Gralnisch. However, it is most convenient to purchase antibodies commercially from such companies as Becton-Dickinson (Philadelphia).
A basal measurement of spontaneous activation is obtained and the cells are then challenged with an agonist. The difference between cells challenged to activate minus the basal measurement is a measure of cell function. In the preferred embodiment, the agonist is 10 nM thrombin.
P-selectin is an internal protein that is exposed on the surface of the platelet after activation. Once activated, platelets cannot be activated again, that is, they are nonfunctional. Platelets which have aggregated are likewise nonfunctional. Measurement of P-selectin before and after activation with thrombin provides a measure of the ability of the platelets to be activated.
P-selectin expression in response to a challenge of 10 nM thrombin is a highly accurate and quantitative method to assess platelet function using flow cytometry techniques. A monoclonal antibody to the platelet GPIIbIIIa receptor (Becton-Dickinson) is conjugated with green fluorescence, marking all platelets with a green detection. […] About 10,000 to 25,000 platelets are counted and measured for P-selectin expression and the % positive cells are defined as activated platelets that express P-selectin. Platelets that are activated are not capable of being activated a second time; that is, they are essentially nonfunctional.
It was proposed years ago by Dawson (Transfusion 21:215-218. (1981)) that ribose at the concentration of 15 mM is beneficial to stored whole blood. It was assumed that ribose functioned by raising the energy levels of the cells, as discussed at length in U.S. Pat. No. 6,159,942. […] However, it should be noted that the platelet storage milieu is an austere environment, lacking the homeostatic and buffering mechanisms of the kidneys, lungs and livers of an intact organism. Various concentrations of D-Ribose were tested to determine the optimum level for platelet storage. […] Platelet concentrate bags were obtained from a local transfusion center within two hours of collection from the donor. The platelets were either supplemented with the D-Ribose cocktail directly into the bag or the platelets were divided into a series of 10 tubes into each of which two ml of platelets were added. Platelet function was assessed by ATP secretion, platelet aggregation, P-selectin expression, platelet count and pH. Platelet function was measured every 24 hours. The bags and tubes were placed on a rotating wheel at room temperature for the duration of the experiment.
For the concentration test, platelets were stored for five days in standard platelet storage solution at room temperature and gentle agitation with or without various levels of ribose. At five days the P-selectin expression test was performed.

[2] = tested on: platelets (ATP secretion); assay: ATP secretion of stored platelets in response to 10 nM thrombin (luciferin/luciferase); type: cell-based
Excerpt: Yet another measure of platelet function is the secretion of ATP. Platelets that are able to function well are able to secrete ATP while cells that have already been activated or have lost funciton in other ways cannot secrete ATP.
The platelet dense granules shown in FIG. 1 contain ATP which is released in response to platelet agonists such as thrombin, collagen or adenosine diphosphate (ADP). The release reaction of ATP from platelets serves as another method to monitor platelet function. There are many methods to analyze ATP. A convenient method is the well known luciferin/luciferase reaction (Sigma Chemical, St. Louis). This assay is derived from the light producing system of the firefly. The substrate luciferin, in the presence of ATP, is cleaved by the enzyme luciferase, accompanied by the emission of light. The emitted light is measured by a photomultiplier tube
Platelet suspensions containing about 350 units in 40 μl were mixed with 10 μl luciferin/luciferase reagent. An agonist is injected. As the platelet dense granules release ATP, the bioluminescent reaction occurs, which is measured by the photomultiplier tube. […] The rate of reaction is recorded and as platelet function decays, the rate decays. Total ATP was measured by lysing the cells with Triton and determining ATP content. The results as presented in Table III are expressed as intact rate of ATP secretion.

platelets (aggregation) = assay: Platelet aggregation on thrombin challenge (optical density / aggregometer); type: cell-based
Excerpt: Another parameter of platelet function is the ability to aggregate when challenged by an agonist. The platelet suspension is dense and milky white. Aggregation and subsequent settling of the aggregates can be estimated visually, or measured with a densitometer.
As a second measure of the effect of ribose on platelets, platelet aggregation was estimated. Platelet aggregation is a crucial function of platelet activity; platelets that cannot aggregate are essentially nonfunctional. Platelets were stored as above. The optical density of the suspension was measured before and after thrombin challenge.
Platelet aggregation was measured with a platelet aggregometer (Chronolog, Inc., Irvine, Calif.). Platelet-rich, turbid suspensions were stirred in a cuvette and the transmittance of light through the sample relative to a platelet poor blank is recorded. When a aggregating agent is added, activated platelets with exposed fibrinogen receptors (GPIIbIIIa) are brought in close contact with each other in a medium containing calcium and fibrinogen and form increasingly large platelet aggregates, accompanied by a decrease in turbidity. The change in optical density was then translated by the instrument to percent aggregation. Simple stated, as platelets clump, more light passes through the cuvette.

bacteria = assay: Bacterial contamination of platelet storage solution by colony counts in Petri dishes; conditions: D-Ribose added to the storage cocktail
Procedure: (§1) Bacterial contamination was measured by colony counts in standard Petri dishes that had been inculated with the test solution. It is assumed that the millimolar glucose concentration in most platelet storage solutions contributes to the growth of bacteria. As noted above, Murphy (Table II) discloses a glucose-free solution for the storage of platelets. Elimination of reduction of glucose levels from millimolar to micromolar concentrations has a profound effect in reducing bacterial contamination, however, platelet function at five days, as measured by ATP secretion and P-selectin expression, was poor.

[3] = tested on: platelets (adhesion to adventitia of human renal artery); assay: Platelet adhesion assay in microflow chamber on human renal artery section; type: cell-based; conditions: 1.5 mM D-ribose solution, eight days of storage
Procedure: The ability of platelets to aggregate as a measure of function can also be assayed by ability to adhere to and […] on tissue, such as the adventitia and intima of arteries. Normal, healthy, functional platelets will show deposition and attachment onto tissue whereas compromised, poorly functional or nonfunctional platelets will have decreased levels of platelet attachment. Platelet rich plasma (PRP) was prepared from a random donor bag of platelets, which were harvested and resuspended in plasma at a concentration of at least 10^6 platelets per milliliter. On Day 1, the platelets were allowed to stand at room temperature for eight hours and were then tested in the platelet adhesion assay. Fresh frozen human renal artery was sectioned and placed flat on a microscope slide. A microflow chamber was constructed to pull PRP across the section at a defined flow rate and defined shear rate. The direction of flow is adventitia, through the media and intima and into the lumen, as illustrated in FIG. 10. Functional platelets will adhere to the adventitia and form accretion zones that initiate at the adventitia (the outside of the blood vessel) and extend across the media and intima. Non-functional platelets are unable to adhere to the adventitia. Therefore, the adhesion assay is a sensitive test of platelet function. Following the baseline test, a portion of the platelet suspension was set aside as control, without additional solution added. Another portion of the platelets were suspended in a solution containing: [table]

[4] = 30 grams of ribose each day, subjects; cited from earlier work
platelets = assay: Preservation of platelet function in stored platelets, methods of examples 1 to 6; type: cell-based
Procedure: It is known that other pentoses may have similar effects as D-Ribose, either through intracellular conversion to riboe or a direct effect. Ribulose-5-phosphate, xylulose-5-phosphate and xylitol were tested for preservation of activity in stored platelets according to the methods of examples 1 to 6.
as §1

[5] = 1.5 mM down to 150 pM, analyzed every 24 hours

Q: What does the source list for O=C[C@H](O)[C@H](O)[C@H](O)CO [D-Ribose]?
A: Difference (% capable of being activated) ([1]; 150 pM D-Ribose): 10.9%; % Positive ([1]; 150 pM D-Ribose, + thrombin): 42.6%; P-Selectin Expression ([1]; 150 pM D-Ribose, + thrombin): 15475; % Positive ([1]; 150 pM D-Ribose, basal): 31.7%; P-Selectin Expression ([1]; 150 pM D-Ribose, basal): 11260; preserving function (P-selectin expression test) ([1]; 150 pM D-Ribose, five days storage): ineffective; retained activity ([1]; 150 nM D-Ribose, 8 days of storage): greater than 75%; retained activity ([1]; 150 nM D-Ribose, 10 days of storage): greater than 50%; Difference (% capable of being activated) ([1]; 150 nM D-Ribose): 60.6%; % Positive ([1]; 150 nM D-Ribose, + thrombin): 65.7%; P-Selectin Expression ([1]; 150 nM D-Ribose, + thrombin): 41480; % Positive ([1]; 150 nM D-Ribose, basal): 5.1%; P-Selectin Expression ([1]; 150 nM D-Ribose, basal): 2465; retained P-selectin expression activity ([1]; 150 nM D-Ribose, five days storage): about 60%; retention of activation activity on activation with thrombin ([1]; 153 nM D-Ribose, three days storage): 78.8%; positive (activated) cells ([1]; 153 nM D-Ribose, three days storage, basal): 5%; Difference (% capable of being activated) ([1]; 15 μM D-Ribose): 58.3%; % Positive ([1]; 15 μM D-Ribose, + thrombin): 64.4%; P-Selectin Expression ([1]; 15 μM D-Ribose, + thrombin): 34960; % Positive ([1]; 15 μM D-Ribose, basal): 6.1%; P-Selectin Expression ([1]; 15 μM D-Ribose, basal): 3275; Difference (% capable of being activated) ([1]; 1.5 mM D-Ribose): 34.4%; % Positive ([1]; 1.5 mM D-Ribose, + thrombin): 60.0%; P-Selectin Expression ([1]; 1.5 mM D-Ribose, + thrombin): 32400; % Positive ([1]; 1.5 mM D-Ribose, basal): 40.4%; P-Selectin Expression ([1]; 1.5 mM D-Ribose, basal): 21605; retained P-selectin expression activity ([1]; 1.5 mM D-Ribose, five days storage): about 60%; preservative effect on ATP secretion ([2]; 1.5 nM D-Ribose): no preservative effect; rise of total ATP content of treated cells ([2]; 150 nM D-Ribose): more than 10%; Rate of ATP secretion ([2]; 150 nM D-Ribose, day 1, 10 nM thrombin): 1.9; Total ATP ([2]; 150 nM D-Ribose, day 1, cells lysed with Triton): 3.0; Rate of ATP secretion ([2]; 150 nM D-Ribose, day 3, 10 nM thrombin): 1.9; Total ATP ([2]; 150 nM D-Ribose, day 3, cells lysed with Triton): 3.2; Rate of ATP secretion ([2]; 150 nM D-Ribose, day 5, 10 nM thrombin): 1.7; Total ATP ([2]; 150 nM D-Ribose, day 5, cells lysed with Triton): 3.4; Rate of ATP secretion ([2]; 150 nM D-Ribose, day 7, 10 nM thrombin): 1.6; Total ATP ([2]; 150 nM D-Ribose, day 7, cells lysed with Triton): 3.4; effect on ATP secretion ([2]; 15 mM D-Ribose): no effect; toxicity to platelets ([2]; 15 mM D-Ribose): toxic to platelets; ATP secretion activity, % of baseline ([2]; optimal amounts of D-Ribose (150 nM), day 7): > 80%; mean ATP secretion activity, % of baseline ([2]; optimal amounts of D-Ribose (150 nM), five days): 90%; platelet samples with aggressive aggregation response to 10 nM thrombin (platelets (aggregation); day 3): all five; platelet samples responding (aggregation) to 10 nM thrombin (platelets (aggregation); day five): four out of five; platelet samples able to aggregate in response to thrombin challenge (platelets (aggregation); day seven): three out of five; aggregation on thrombin challenge (platelets (aggregation); platelets stored in 150 pM D-Ribose): no aggregation; aggregation on thrombin challenge (platelets (aggregation); platelets stored in 150 nM D-Ribose): strong aggregation; aggregation on thrombin challenge (platelets (aggregation); platelets stored in 15 μM D-Ribose): very weak effect; aggregation on thrombin challenge (platelets (aggregation); platelets stored in 1.5 mM D-Ribose): no aggregation; incidence of bacterial contamination (bacteria): lower incidence of bacterial contamination; platelet adhesion ([3]; 30 seconds of flow): very early platelet adhesion at the adventitia; platelet adhesion and accretion ([3]; 2.5 minutes of flow): significant platelet adhesion and accretion zones; platelet adhesion and accretion ([3]; 4.5 minutes of flow): formed a large platelet mass at the adventitia; tolerance of ingestion [4]: no ill effects

Q: What does the source list for O=C(CO)[C@H](O)[C@H](O)COP(=O)(O)O [Ribulose-5-phosphate]?
A: P-selectin expression in response to thrombin challenge versus controls [1, 5]: No difference from controls; ATP secretion in response to 10 nM thrombin versus controls [2, 5]: No difference from controls; platelet aggregation versus controls (platelets (aggregation); [5]): No difference from controls

Q: Which “preservation of platelet function” value (platelets) does the source give for OC[C@@H](O)[C@H](O)[C@@H](O)CO [xylitol] here?
A: The value was “some benefit”.

Q: Which “P-selectin expression in response to 10 nM thrombin challenge” value ([1]; five-day treated platelets) does the source give for O=C(CO)[C@@H](O)[C@H](O)COP(=O)(O)O [xylulose-5-phosphate, Xylulose-5-phosphate] here?
A: The value was 67.7%.

Q: And the P-selectin spontaneous expression ([1]; five-day treated platelets)?
A: Its P-selectin spontaneous expression is 37.5%.

Q: What about the “ATP secretion, retention of basal value” ([2]; five days storage) of the same compound?
A: The value was 64.5%.

Q: And the platelet aggregation (platelets (aggregation); five days storage)?
A: Its platelet aggregation is “weak”.
